Test results: US7511284B2, “Photostabilisation of fluorescent dyes” (International University Bremen GmbH, priority 2004, dated 2009)
Marks after values point to notes of the source that are not given here.

Assays:
[1] = Absorption and fluorescence maxima with and without CB7; assay type: physicochemical; parameters: unit not given here
Description: Addition of cucurbiturils leads to the formation of complexes with fluorescent dyes, which have changed photophysical properties, see examples in Table 3.

[2] = Fluorescence quantum yield and brightness with and without CB7; assay type: physicochemical; parameters: ε × φf (brightness): unit not given beside the values
[3] = Photostabilisation of fluorescent dyes by cucurbiturils (preliminary tests, tests carried out hitherto); settings: for photostabilisation by the use of a cucurbituril: in particular cucurbit[7]uril; for photostabilisation of conventional fluorescent dyes by the cucurbituril: preliminary tests, in particular xanthene and cyanine fluorescent dyes
[4] = Photobleaching of aqueous dye solution under 532-nm Nd-YAG laser irradiation, monitored by UV-Vis absorption
Protocol: The addition of cucurbituril (mixture of a plurality of cucurbiturils, wherein cucurbit[7]uril (formula (D), also known as CB7) was the predominant species according to mass spectrometry, with cucurbit[5]uril as a detectable impurity), concentration of cucurbit[7]uril 1-2 mM, mixture prepared as described in C. […] The photostabilisation of the fluorescent dye stabilised by cucurbituril (CB7) was monitored by the characteristic visible absorption band with a Varian Cary 50 UV-VIS spectrophotometer, based on a cucurbituril-free, optically adapted (at 532 nm) solution of the fluorescent dye. The UV-Vis spectra were recorded at different irradiation times (FIG. 1), and the decreasing absorption (A) at 532 nm was plotted against the pertinent function log([10^A0−1]/[10^A−1]). […] The concentrations with and without cucurbit[7]uril are not identical, but were so chosen that the absorbance at 532 nm was identical at the start of irradiation. The concentration of rhodamine 6G was lower in samples containing cucurbit[7]uril than in samples without cucurbit[7]uril owing to a higher extinction coefficient.
The quantum yield of the photobleaching was determined by means of the initial linear region of the graph (FIG. 2) of the ratio of the gradients S(D)/S(D+CB7)=εDφb(D)/[εD+CB7φb(D+CB7)], wherein εD+CB7 and εD are the extinction coefficient of the dye (D) with and without CB7 at the irradiation wavelength of 532 nm.
The chosen stabilisation factor was the ratio of the quantum yields of the photobleaching in the absence and presence of CB7.

[5] = Decrease in photon count rate in fluorescence correlation spectroscopy (FCS) on a confocal microscope; assay type: physicochemical; settings: for relative photon count rate: irradiation for 2000 seconds; for count rate present: after 30 minutes irradiation, 10 nM dye
Protocol: Aqueous solutions of fluorescent dyes (10 nM) with and without cucurbit[7]uril (1 mM) were also studied by fluorescence correlation spectroscopy (FCS) on a confocal microscope (Carl Zeiss LSM 510 Confocor 2), which is used for several applications relevant for biology, biochemistry and spectroscopy. 400 μl of each solution were transferred to an 8-chamber cover glass system and irradiated with the light of a CW laser. The decrease in the count rate, which is directly proportional to the mean fluorescence intensity of the sample, was measured against the irradiation time. […] Considerable photostabilisation can again be seen, because without cucurbit[7]uril less than 30%, but with cucurbit[7]uril still more than 90% of the count rate is present after 30 minutes. The observed photostabilisation factors are contained in Table 2 (footnotes b, c, d).
The photon count rate in samples containing cucurbit[7]uril fell during irradiation for 2000 seconds only to about 95%, while the […] of the cucurbit[7]uril-free sample fell to about 25% of the initial value in the same time.

[6] = Decrease of fluorescence intensity of dye solutions stored in daylight (ambient light); assay type: physicochemical; settings: for Stabilisation factor: with 1 mM CB7, daylight; for fluorescence intensity after exposure to daylight: 300 hours
Protocol: As an alternative, the decrease in the fluorescence intensity of the above-described solutions was determined by observing their fluorescence (Cary Eclipse Fluorometer, Varian) when the solutions were stored in daylight (ambient light). The fluorescence intensity remained unchanged over the observation period for the solution containing cucurbituril, whereas it felt markedly for the cucurbituril-free solution (FIG. 3), with approximate half-lives of about 80 to 390 hours, depending on the sample vessel.

Compound | photostabilisation by the use of a cucurbituril [3] | λabs max ([1]; with 1 mM CB7) | λem max ([1]; with 1 mM CB7) | λabs max ([1]; without CB7) | λem max ([1]; without CB7) | ε × φf (brightness) ([2]; with 1 mM CB7) | φf ([2]; with 1 mM CB7) | ε × φf (brightness) ([2]; without CB7) | φf ([2]; without CB7) | other results
CCN1C(=CC=CC=CC2=[N+](CC)c3ccc(S(=O)(=O)[O-])cc3C2(C)C)C(C)(C)c2cc(S(=O)(=O)O)ccc21 [Cyanine 5, cyanine 5] | – | 642.2 | 657.0 | 642.0 | 660.0 | 51000 | 0.456 | 37260 | 0.27 | absorbance (extinction coefficient) and fluorescence quantum yield (intensity) in a complex with cucurbituril versus without [2]: greater
rhodamine 123 | Particularly good photostabilisation | 502.6 | 532.0 | 500.0 | 525.0 | 24097 | 0.362 | 57470 | 0.83 | number of absorption cycles before a molecule decomposes ([4]; without cucurbit[7]uril): 1.6 million
CN(C)c1ccc2c(-c3ccccc3C(=O)[O-])c3ccc(N(C)C)cc3[o+]c2c1 [Tetramethylrhodamine, tetramethylrhodamine] | Particularly good photostabilisation | 558.6 | 582.0 | 552.6 | 577.0 | 20277 | 0.271 | 17553 | 0.20 | Stabilisation factor ([5]; 1 mM CB7, 10 nM dye solutions, 514-nm laser light (30 mW, cw), FCS, after 35 minutes, via photon count rate): 4.3^b; relative photon count rate ([5]; cucurbit[7]uril-free sample): about 25 % of the initial value; count rate present ([5]; with cucurbit[7]uril (1 mM)): more than 90%; relative photon count rate ([5]; with cucurbit[7]uril): about 95 % of the initial value; count rate present ([5]; without cucurbit[7]uril): less than 30%
O=C1N2CN3C(=O)N4CN5C(=O)N6CN7C(=O)N8CN9C(=O)N%10CN%11C(=O)N%12CN%13C(=O)N%14CN%15C(=O)N%16CN1C1C2N2CN%17C(=O)N(CN%18C(=O)N(CN%19C(=O)N(CN%20C(=O)N(CN%21C(=O)N(CN%22C(=O)N(CN%23C(=O)N(CN1C2=O)C%16C%15%23)C%14C%13%22)C%12C%11%21)C%10C9%20)C8C7%19)C6C5%18)C4C3%17 (centres unmarked) [cucurbit[8]uril] | – | – | – | – | – | – | – | – | – | photostabilisation of conventional fluorescent dyes by the cucurbituril [3]: best photostabilisation
CCN1C(=CC=CC2=[N+](CC)c3ccc(S(=O)(=O)[O-])cc3C2(C)C)C(C)(C)c2cc(S(=O)(=O)O)ccc21 [Cyanine 3, cyanine 3] | – | 558.6 | 571.0 | 544.6 | 560.0 | 11502 | 0.108 | 18000 | 0.15 | –
Cc1c(C)c2cc3c4c(c2oc1=O)CCCN4CCC3 [coumarin 39] | Particularly good photostabilisation | – | – | – | – | – | – | – | – | –
Cc1cc(=O)oc2c3c4c(cc12)CCCN4CCC3 [Coumarin-102, coumarin 102] | – | 404.6 | 476.0 | 392.6 | 489.0 | 17807 | 0.754 | 14388 | 0.66 | absorbance (extinction coefficient) and fluorescence quantum yield (intensity) in a complex with cucurbituril versus without [2]: greater
O=C1N2CN3C(=O)N4CN5C(=O)N6CN7C(=O)N8CN9C(=O)N%10CN1C1C2N2CN%11C(=O)N(CN%12C(=O)N(CN%13C(=O)N(CN%14C(=O)N(CN1C2=O)C%10C%149)[C@H]8[C@H]7%13)[C@H]6[C@H]5%12)C4C3%11 (some centres unmarked) [cucurbit[5]uril] | – | – | – | – | – | – | – | – | – | photostabilisation of conventional fluorescent dyes by the cucurbituril [3]: best photostabilisation
O=C1N2CN3C(=O)N4CN5C(=O)N6CN7C(=O)N8CN9C(=O)N%10CN%11C(=O)N%12CN1C1C2N2CN%13C(=O)N(CN%14C(=O)N(CN%15C(=O)N(CN%16C(=O)N(CN%17C(=O)N(CN1C2=O)C%12C%11%17)C%10C9%16)C8C7%15)C6C5%14)C4C3%13 (centres unmarked) [cucurbit[6]uril] | – | – | – | – | – | – | – | – | – | photostabilisation of conventional fluorescent dyes by the cucurbituril [3]: best photostabilisation
CCN=c1cc2oc3cc(NCC)c(C)cc3c(-c3ccccc3C(=O)OCC)c-2cc1C.Cl [Rhodamine 6G, rhodamine 6G] | Particularly good photostabilisation | 534.6 | 555.0 | 526.0 | 552.0 | 81594 | 0.883 | 71218 | 0.89 | Stabilisation factor ([6]; quartz cuvette): >500*; Stabilisation factor ([6]; screw-top glass bottle): >5000*; fluorescence intensity after exposure to daylight ([6]; with cucurbit[7]uril in glass bottles): hardly decreases at all; fluorescence intensity after exposure to daylight ([6]; without cucurbit[7]uril, glass bottle): 60 % of the original value; fluorescence intensity after exposure to daylight ([6]; without cucurbit[7]uril, quartz cuvettes): 90 % of the original value; Stabilisation factor ([4]; 1 mM CB7, 3 μM dye solutions, 532-nm laser light (1.3 W, 10 Hz) of a Nd-YAG laser): 30.0^a; Stabilisation factor ([4]; with 1 mM CB7, high laser power (2.1 W), 532 nm): 7.5*; Stabilisation factor ([4]; with 1 mM CB7, low laser power (1.3 W), 532 nm): 30*; number of absorption cycles before a molecule decomposes ([4]; with addition of cucurbit[7]uril (CB7 solution)): 22 million; number of absorption cycles before a molecule decomposes ([4]; without cucurbit[7]uril): 0.8 million
O=C1OC2(c3ccc(O)cc3Oc3cc(O)ccc32)c2ccccc21 [fluorescein] | – | – | – | – | – | – | – | – | – | improvement in photostability by cucurbiturils according to formulae (B) to (E) ([3]; anionic fluorescent dye): only a slight or no improvement
